Consider 24 compounds from patent publication US20200172483A1, “HETEROCYCLIC SMALL MOLECULE MODULATORS OF HUMAN STING” (Curadev Pharma Limited, priority 2017, published 2020).

The target in the experiment is T1, WT/R232 STING protein (Homo sapiens, UniProt Q86WV6, H232R).
T1 construct: host or cells: HEK293T
T1 sequence (Q86WV6 whole entry H232R): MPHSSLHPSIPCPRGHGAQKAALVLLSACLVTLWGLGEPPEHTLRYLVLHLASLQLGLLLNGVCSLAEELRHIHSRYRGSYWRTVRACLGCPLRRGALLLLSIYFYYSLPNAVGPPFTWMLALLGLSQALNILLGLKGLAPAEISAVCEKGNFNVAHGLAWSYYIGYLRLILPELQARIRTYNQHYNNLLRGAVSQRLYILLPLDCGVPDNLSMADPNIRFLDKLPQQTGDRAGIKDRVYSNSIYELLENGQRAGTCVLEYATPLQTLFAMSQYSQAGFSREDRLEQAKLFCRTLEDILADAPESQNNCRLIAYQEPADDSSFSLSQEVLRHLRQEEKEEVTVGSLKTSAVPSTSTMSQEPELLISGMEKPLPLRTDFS
In words: Luciferase reporter assay in HEK293T-hSTING-Luciferase cells (R232). The class given is cell-based. The conditions noted are these: 20 hr stimulation, EC50 range. The text has this: • a) Stable STING expressing cells—Stable HEK293T STING-expressing cell lines were generated using plasmids purchased from Invivogen, CA, USA, that contain STING cDNA cloned into the pUNO-1 vector under hEF1-HTLV promoter and containing the Blasticidin selection cassette. The plasmids hSTING (R232), hSTING (H232), hSTING (HAQ) were directly procured from Invivogen while hSTING (AQ) and hSTING (Q) were derived from hSTING (HAQ) and hSTING (R232) plasmids respectively by using a PCR based site directed mutagenesis method. These vectors were individually transfected into HEK293T cells using Lipofectamine (Invitrogen) and transfected cells were selected under Blasticidin selection. These transfected cells were further subjected to clonal selection using the limiting dilution method to obtain clonally pure populations of HEK cells transfected with each of the above mentioned human STING variants. Only those clones were selected in which ligand independent activation of STING was minimal. • b) Stable Luciferase reporter gene expressing cells—Stable HEK293T Luciferase reporter gene expressing cell lines were generated using pCDNA4 plasmids under an IRF-inducible promoter. This promoter is comprised of five tandem interferon-stimulated response elements (ISRE) fused to an ISG54 minimal promoter. This vector was transfected into HEK293T cells using Lipofectamine (Invitrogen) and transfected cells were selected under Zeocin selection. These transfected cells were further subjected to clonal selection using the limiting dilution method to obtain clonally pure populations of HEK cells transfected the Luciferase reporter construct. Only those clones were selected in which ligand independent induction of luciferase was minimal.
5×10^5 clonally selected HEK293T-hSTING-Luciferase cells were seeded in 384-well plates in growth medium and stimulated with novel compounds. After 20 hr of stimulation supernatant were removed and secretary reporter gene activity were measured using the Quanti-Luc detection system (Invivogen) on a Spectramax i3X luminometer.
All compounds were first tested in a primary screen using WT/R232 STING protein to obtain a ‘fold-induction’ over baseline levels of protein activity.
For the compound `Cc1ncc(CN2C(=O)C(C)(C)c3ccc(C(=O)NCc4c(F)cc(F)cc4F)cc32)s1` [Example 58, 3,3-dimethyl-1-((2-methylthiazol-5-yl)methyl)-2-oxo-N-(2,4,6-trifluorobenzyl)indoline-6-carboxamide], the EC50 was in the range of 1 to 10 µM.

Consider `Cc1ccc(CNC(=O)c2ccc3c(c2)N(CCc2ccccc2)C(=O)C3(C)C)o1` [Example 59, 3,3-dimethyl-N-((5-methylfuran-2-yl)methyl)-2-oxo-1-phenethylindoline-6-carboxamide], for which the EC50 lay within 1 to 10 µM.

For `Cc1ccc(CNC(=O)c2ccc3c(c2)N(CC(=O)c2ccccc2)C(=O)C3(C)C)o1` [Example 62, 3,3-dimethyl-N-((5-methylfuran-2-yl)methyl)-2-oxo-1-(2-oxo-2-phenylethyl)indoline-6-carboxamide], the 50% effective concentration (EC50) is above 10 µM.

For the compound `COc1cc(F)c(CN2C(=O)C(C)(C)c3ccc(C(=O)NCc4c(F)cc(F)cc4F)cc32)c(F)c1` [Example 64, 1-(2,6-difluoro-4-methoxybenzyl)-3,3-dimethyl-2-oxo-N-(2,4,6-trifluorobenzyl)indoline-6-carboxamide], the concentration giving a half-maximal response (EC50) was at most 1 µM.

`CC1(C)C(=O)N(Cc2c(F)cc(O)cc2F)c2cc(C(=O)NCc3c(F)cc(F)cc3F)ccc21` [Example 65, 1-(2,6-difluoro-4-hydroxybenzyl)-3,3-dimethyl-2-oxo-N-(2,4,6-trifluorobenzyl)indoline-6-carboxamide] registered an EC50 of at most 1 µM.

The compound `COc1ccc(F)c(CN2C(=O)C(C)(C)c3ccc(C(=O)NCc4c(F)cc(F)cc4F)cc32)c1Cl` [Example 66, 1-(2-chloro-6-fluoro-3-methoxybenzyl)-3,3-dimethyl-2-oxo-N-(2,4,6-trifluorobenzyl)indoline-6-carboxamide] gave an EC50 of at most 1 µM.

As to `CC1(C)C(=O)N(Cc2c(F)ccc(O)c2Cl)c2cc(C(=O)NCc3c(F)cc(F)cc3F)ccc21` [Example 67, 1-(2-chloro-6-fluoro-3-hydroxybenzyl)-3,3-dimethyl-2-oxo-N-(2,4,6-trifluorobenzyl)indoline-6-carboxamide], the half-maximal effective concentration (EC50) is at most 1 µM.

The compound `Cn1cc(CN2C(=O)C(C)(C)c3ccc(C(=O)NCc4c(F)cc(F)cc4F)cc32)cn1` [Example 68, 3,3-dimethyl-1-((1-methyl-1H-pyrazol-4-yl)methyl)-2-oxo-N-(2,4,6-trifluorobenzyl)indoline-6-carboxamide] showed a concentration for a half-maximal effect (EC50) of 1 to 10 µM.

For the compound `CC1(C)C(=O)N(Cc2cc(F)cc(F)c2)c2cc(C(=O)NCc3ccc(F)o3)ccc21` [Example 69, 1-(3,5-difluorobenzyl)-N-((5-fluorofuran-2-yl)methyl)-3,3-dimethyl-2-oxoindoline-6-carboxamide], the half-maximal effective concentration (EC50) was 1 to 10 µM.

`Cn1nccc1CN1C(=O)C(C)(C)c2ccc(C(=O)NCc3c(F)cc(F)cc3F)cc21` [Example 77, 3,3-dimethyl-1-((1-methyl-1H-pyrazol-5-yl)methyl)-2-oxo-N-(2,4,6-trifluorobenzyl)indoline-6-carboxamide] displayed an EC50 of 1 to 10 µM.

Turning to `Cc1cccc(-c2nc(CN3C(=O)C(C)(C)c4ccc(C(=O)NCc5c(F)cc(F)cc5F)cc43)c(C)o2)c1` [Example 78, 3,3-dimethyl-1-((5-methyl-2-(m-tolyl)oxazol-4-yl)methyl)-2-oxo-N-(2,4,6-trifluorobenzyl)indoline-6-carboxamide], the 50% effective concentration (EC50) is above 10 µM.

`CC1(C)C(=O)N(Cc2cccc(C(N)=O)c2F)c2cc(C(=O)NCc3c(F)cc(F)cc3F)ccc21` [Example 79, 1-(3-carbamoyl-2-fluorobenzyl)-3,3-dimethyl-2-oxo-N-(2,4,6-trifluorobenzyl)indoline-6-carboxamide] gave an EC50 of 1 to 10 µM.

With `Cc1nn(C)cc1CN1C(=O)C(C)(C)c2ccc(C(=O)NCc3c(F)cc(F)cc3F)cc21` [Example 80, 1-((1,3-dimethyl-1H-pyrazol-4-yl)methyl)-3,3-dimethyl-2-oxo-N-(2,4,6-trifluorobenzyl)indoline-6-carboxamide], the 50% effective concentration (EC50) was above 10 µM.

Compound `Cc1nc(CN2C(=O)C(C)(C)c3ccc(C(=O)NCc4c(F)cc(F)cc4F)cc32)co1` [Example 83, 3,3-dimethyl-1-((2-methyloxazol-4-yl)methyl)-2-oxo-N-(2,4,6-trifluorobenzyl)indoline-6-carboxamide] registered an EC50 above 10 µM.

`CC1(C)C(=O)N(Cc2c(F)cccc2C(F)(F)F)c2cc(C(=O)NCc3c(F)cc(F)cc3F)ccc21` [Example 84, 1-(2-fluoro-6-(trifluoromethyl)benzyl)-3,3-dimethyl-2-oxo-N-(2,4,6-trifluorobenzyl)indoline-6-carboxamide]: the half-maximal effective concentration (EC50) fell in the range of 1 to 10 µM.

As for `CC1(C)C(=O)N(Cc2c(F)cccc2Cl)c2cc(C(=O)NCc3ccc(N)cc3)ccc21` [Example 85, N-(4-aminobenzyl)-1-(2-chloro-6-fluorobenzyl)-3,3-dimethyl-2-oxoindoline-6-carboxamide], the EC50 was in the range of 1 to 10 µM.

Consider `CC1(C)C(=O)N(Cc2c(F)cccc2Cl)c2cc(C(=O)NCc3ccc4c(c3)OCO4)ccc21` [Example 86, N-(benzo[d][1,3]dioxol-5-ylmethyl)-1-(2-chloro-6-fluorobenzyl)-3,3-dimethyl-2-oxoindoline-6-carboxamide], for which the EC50 is 1 to 10 µM.

Regarding `CC1(C)C(=O)N(Cc2c(F)cccc2Cl)c2cc(C(=O)NCc3cccc4c3OCO4)ccc21` [Example 87, N-(benzo[d][1,3]dioxol-4-ylmethyl)-1-(2-chloro-6-fluorobenzyl)-3,3-dimethyl-2-oxoindoline-6-carboxamide], the EC50 is above 10 µM.

`CC1(C)C(=O)N(Cc2c(F)cccc2Cl)c2cc(C(=O)NCc3cc4cc(O)ccc4o3)ccc21` [Example 88, 1-(2-chloro-6-fluorobenzyl)-N-((5-hydroxybenzofuran-2-yl)methyl)-3,3-dimethyl-2-oxoindoline-6-carboxamide] came in with a half-maximal effective concentration (EC50) of 1 to 10 µM.

Regarding `Cc1oc(-c2ccccc2)nc1CN1C(=O)C(C)(C)c2ccc(C(=O)NCc3c(F)cc(F)cc3F)cc21` [Example 91, 3,3-dimethyl-1-((5-methyl-2-phenyloxazol-4-yl)methyl)-2-oxo-N-(2,4,6-trifluorobenzyl)indoline-6-carboxamide], the half-maximal effective concentration (EC50) is above 10 µM.

The compound `CC1(C)C(=O)N(Cc2c(F)cccc2Cl)c2cc(C(=O)NCc3cccc4occc34)ccc21` [Example 93, N-(benzofuran-4-ylmethyl)-1-(2-chloro-6-fluorobenzyl)-3,3-dimethyl-2-oxoindoline-6-carboxamide] gave an EC50 above 10 µM.

`CC1(C)C(=O)N(Cc2c(F)cccc2Cl)c2cc(C(=O)NCc3cc4cc([N+](=O)[O-])ccc4o3)ccc21` [Example 94, 1-(2-chloro-6-fluorobenzyl)-3,3-dimethyl-N-((5-nitrobenzofuran-2-yl)methyl)-2-oxoindoline-6-carboxamide]: the EC50 fell in the range of 1 to 10 µM.

The compound `CC1(C)C(=O)N(Cc2c(F)cccc2Cl)c2cc(C(=O)NCc3ccc4c(c3)CC(=O)N4)ccc21` [Example 95, 1-(2-chloro-6-fluorobenzyl)-3,3-dimethyl-2-oxo-N-((2-oxoindolin-5-yl)methyl)indoline-6-carboxamide] gave an EC50 above 10 µM.

`Cn1ncc2cccc(CN3C(=O)C(C)(C)c4ccc(C(=O)NCc5c(F)cc(F)cc5F)cc43)c21` [Example 96, 3,3-dimethyl-1-((1-methyl-1H-indazol-7-yl)methyl)-2-oxo-N-(2,4,6-trifluorobenzyl)indoline-6-carboxamide] gave a 50% effective concentration (EC50) of 1 to 10 µM.
